The NIST ThermoML archive (doi:10.1016/j.jct.2019.03.007)

Test: molar heat capacity at constant pressure
Settings: 101.33 kPa, DSC

O=[N+]([O-])[O-].O=[N+]([O-])[O-].[Ca+2] [calcium nitrate]
Settings | molar heat capacity at constant pressure [J/K/mol]
140.18 K, Crystal 2 | 107.65
141.18 K, Crystal 2 | 107.79
142.18 K, Crystal 2 | 107.93
143.18 K, Crystal 2 | 108.08
144.18 K, Crystal 2 | 108.26
145.18 K, Crystal 2 | 108.53
146.18 K, Crystal 2 | 108.77
147.18 K, Crystal 2 | 109.04
148.18 K, Crystal 2 | 109.41
149.18 K, Crystal 2 | 109.53
150.18 K, Crystal 2 | 109.66
151.18 K, Crystal 2 | 110.04
152.18 K, Crystal 2 | 110.2
153.18 K, Crystal 2 | 110.55
154.18 K, Crystal 2 | 110.68
155.18 K, Crystal 2 | 111.12
156.18 K, Crystal 2 | 111.45
157.18 K, Crystal 2 | 111.69
158.18 K, Crystal 2 | 111.99
159.18 K, Crystal 2 | 112.21
160.18 K, Crystal 2 | 112.56
161.18 K, Crystal 2 | 112.86
162.18 K, Crystal 2 | 113.24
163.18 K, Crystal 2 | 113.35
164.18 K, Crystal 2 | 113.45
165.18 K, Crystal 2 | 113.94
166.18 K, Crystal 2 | 114.12
167.18 K, Crystal 2 | 114.45
168.18 K, Crystal 2 | 114.73
169.18 K, Crystal 2 | 114.98
170.18 K, Crystal 2 | 115.36
171.18 K, Crystal 2 | 115.66
172.18 K, Crystal 2 | 116.1
173.18 K, Crystal 2 | 116.37
174.18 K, Crystal 2 | 116.66
175.18 K, Crystal 2 | 117.01
176.18 K, Crystal 2 | 117.33
177.18 K, Crystal 2 | 117.64
178.18 K, Crystal 2 | 117.92
179.18 K, Crystal 2 | 118.12
180.18 K, Crystal 2 | 118.62
181.18 K, Crystal 2 | 118.7
182.18 K, Crystal 2 | 119.16
183.18 K, Crystal 2 | 119.36
184.18 K, Crystal 2 | 119.66
185.18 K, Crystal 2 | 119.91
186.18 K, Crystal 2 | 120.23
187.18 K, Crystal 2 | 120.54
188.18 K, Crystal 2 | 120.8
189.18 K, Crystal 2 | 121.2
190.18 K, Crystal 2 | 121.32
191.18 K, Crystal 2 | 121.79
192.18 K, Crystal 2 | 122.02
193.18 K, Crystal 2 | 122.2
194.18 K, Crystal 2 | 122.58
195.18 K, Crystal 2 | 122.7
196.18 K, Crystal 2 | 123.1
197.18 K, Crystal 2 | 123.28
198.18 K, Crystal 2 | 123.48
199.18 K, Crystal 2 | 123.86
200.18 K, Crystal 2 | 123.94
201.18 K, Crystal 2 | 124.39
202.18 K, Crystal 2 | 124.62
203.18 K, Crystal 2 | 124.88
204.18 K, Crystal 2 | 125.24
205.18 K, Crystal 2 | 125.55
206.18 K, Crystal 2 | 125.8
207.18 K, Crystal 2 | 126.11
208.18 K, Crystal 2 | 126.43
209.18 K, Crystal 2 | 126.73
210.18 K, Crystal 2 | 126.95
211.18 K, Crystal 2 | 127.36
212.18 K, Crystal 2 | 127.6
213.18 K, Crystal 2 | 127.82
214.18 K, Crystal 2 | 128.19
215.18 K, Crystal 2 | 128.55
216.18 K, Crystal 2 | 128.82
217.18 K, Crystal 2 | 129.14
218.18 K, Crystal 2 | 129.41
219.18 K, Crystal 2 | 129.69
220.18 K, Crystal 2 | 129.91
221.18 K, Crystal 2 | 130.24
222.18 K, Crystal 2 | 130.55
223.18 K, Crystal 2 | 130.83
224.18 K, Crystal 2 | 131.03
225.18 K, Crystal 2 | 131.19
226.18 K, Crystal 2 | 131.52
227.18 K, Crystal 2 | 131.78
228.18 K, Crystal 2 | 132.06
229.18 K, Crystal 2 | 132.35
230.18 K, Crystal 2 | 132.6
231.18 K, Crystal 2 | 132.91
232.18 K, Crystal 2 | 133.16
233.18 K, Crystal 2 | 133.4
234.18 K, Crystal 2 | 133.66
235.18 K, Crystal 2 | 134.04
236.18 K, Crystal 2 | 134.28
237.18 K, Crystal 2 | 134.56
238.18 K, Crystal 2 | 134.67
239.18 K, Crystal 2 | 134.73
240.18 K, Crystal 2 | 134.88
241.18 K, Crystal 2 | 134.93
242.18 K, Crystal 2 | 135.27
243.18 K, Crystal 2 | 135.75
244.18 K, Crystal 2 | 136.33
245.18 K, Crystal 2 | 136.84
246.18 K, Crystal 2 | 137.21
247.18 K, Crystal 2 | 137.52
248.18 K, Crystal 2 | 137.79
249.18 K, Crystal 2 | 138.02
250.18 K, Crystal 2 | 138.35
251.18 K, Crystal 2 | 138.62
252.18 K, Crystal 2 | 138.99
253.18 K, Crystal 2 | 139.21
254.18 K, Crystal 2 | 139.61
255.18 K, Crystal 2 | 139.92
256.18 K, Crystal 2 | 140.17
257.18 K, Crystal 2 | 140.52
258.18 K, Crystal 2 | 140.74
259.18 K, Crystal 2 | 140.96
260.18 K, Crystal 2 | 141.24
261.18 K, Crystal 2 | 141.46
262.18 K, Crystal 2 | 141.71
263.18 K, Crystal 2 | 141.92
264.18 K, Crystal 2 | 142.15
265.18 K, Crystal 2 | 142.33
266.18 K, Crystal 2 | 142.65
267.18 K, Crystal 2 | 142.87
268.18 K, Crystal 2 | 143.14
269.18 K, Crystal 2 | 143.48
270.18 K, Crystal 2 | 143.75
271.18 K, Crystal 2 | 144.11
272.18 K, Crystal 2 | 144.39
273.18 K, Crystal 2 | 144.69
274.18 K, Crystal 2 | 145.05
275.18 K, Crystal 2 | 145.33
276.18 K, Crystal 2 | 145.65
277.18 K, Crystal 2 | 145.91
278.18 K, Crystal 2 | 146.15
279.18 K, Crystal 2 | 146.49
280.18 K, Crystal 2 | 146.74
281.18 K, Crystal 2 | 147.05
282.18 K, Crystal 2 | 147.32
283.18 K, Crystal 2 | 147.62
284.18 K, Crystal 2 | 148.05
285.18 K, Crystal 2 | 148.47
286.18 K, Crystal 2 | 149.01
287.18 K, Crystal 2 | 149.55
288.18 K, Crystal 2 | 150.15
289.18 K, Crystal 2 | 150.77
290.18 K, Crystal 1 | 151.37
291.18 K, Crystal 1 | 151.12
292.18 K, Crystal 1 | 150.21
293.18 K, Crystal 1 | 149.35
294.18 K, Crystal 1 | 148.69
295.18 K, Crystal 1 | 148.17
296.18 K, Crystal 1 | 147.88
297.18 K, Crystal 1 | 147.79
298.18 K, Crystal 1 | 147.74
299.18 K, Crystal 1 | 147.76
300.18 K, Crystal 1 | 147.88
301.18 K, Crystal 1 | 148.08
302.18 K, Crystal 1 | 148.34
303.18 K, Crystal 1 | 148.7
304.18 K, Crystal 1 | 149.02
305.18 K, Crystal 1 | 149.46
306.18 K, Crystal 1 | 149.88
307.18 K, Crystal 1 | 150.3
308.18 K, Crystal 1 | 150.74
309.18 K, Crystal 1 | 151.11
310.18 K, Crystal 1 | 151.52
311.18 K, Crystal 1 | 151.89
312.18 K, Crystal 1 | 152.28
313.18 K, Crystal 1 | 152.66
314.18 K, Crystal 1 | 153.07
315.18 K, Crystal 1 | 153.52
316.18 K, Crystal 1 | 153.88
317.18 K, Crystal 1 | 154.27
318.18 K, Crystal 1 | 154.64
319.18 K, Crystal 1 | 154.97
320.18 K, Crystal 1 | 155.32
321.18 K, Crystal 1 | 155.55
322.18 K, Crystal 1 | 155.81
323.18 K, Crystal 1 | 155.97
324.18 K, Crystal 1 | 156.09
325.18 K, Crystal 1 | 156.21
326.18 K, Crystal 1 | 156.25
327.18 K, Crystal 1 | 156.31
328.18 K, Crystal 1 | 156.31
328.78 K, Crystal 1 | 142.63
329.18 K, Crystal 1 | 156.34
329.78 K, Crystal 1 | 143.76
330.18 K, Crystal 1 | 156.4
330.78 K, Crystal 1 | 144.52
331.18 K, Crystal 1 | 156.44
331.78 K, Crystal 1 | 145.04
332.18 K, Crystal 1 | 156.55
332.78 K, Crystal 1 | 145.41
333.18 K, Crystal 1 | 156.64
333.78 K, Crystal 1 | 145.78
334.18 K, Crystal 1 | 156.71
334.78 K, Crystal 1 | 146.14
335.18 K, Crystal 1 | 156.85
335.78 K, Crystal 1 | 146.49
336.18 K, Crystal 1 | 156.94
336.78 K, Crystal 1 | 146.84
337.18 K, Crystal 1 | 157.08
337.78 K, Crystal 1 | 147.18
338.18 K, Crystal 1 | 157.1
338.78 K, Crystal 1 | 147.5
339.18 K, Crystal 1 | 157.13
339.78 K, Crystal 1 | 147.78
340.18 K, Crystal 1 | 157.13
340.78 K, Crystal 1 | 148.04
341.18 K, Crystal 1 | 157.22
341.78 K, Crystal 1 | 148.31
342.18 K, Crystal 1 | 157.26
342.78 K, Crystal 1 | 148.58
343.18 K, Crystal 1 | 157.38
343.78 K, Crystal 1 | 148.83
344.18 K, Crystal 1 | 157.49
344.78 K, Crystal 1 | 149.08
345.18 K, Crystal 1 | 157.55
345.78 K, Crystal 1 | 149.33
346.18 K, Crystal 1 | 157.7
346.78 K, Crystal 1 | 149.56
347.18 K, Crystal 1 | 157.84
347.78 K, Crystal 1 | 149.77
348.18 K, Crystal 1 | 158
348.78 K, Crystal 1 | 149.98
349.18 K, Crystal 1 | 158.16
349.78 K, Crystal 1 | 150.2
350.18 K, Crystal 1 | 158.3
350.78 K, Crystal 1 | 150.42
351.18 K, Crystal 1 | 158.39
351.78 K, Crystal 1 | 150.66
352.18 K, Crystal 1 | 158.48
352.78 K, Crystal 1 | 150.89
353.18 K, Crystal 1 | 158.58
353.78 K, Crystal 1 | 151.12
354.18 K, Crystal 1 | 158.8
354.78 K, Crystal 1 | 151.32
355.18 K, Crystal 1 | 158.94
355.78 K, Crystal 1 | 151.51
356.18 K, Crystal 1 | 159.08
356.78 K, Crystal 1 | 151.68
357.18 K, Crystal 1 | 159.2
357.78 K, Crystal 1 | 151.85
358.18 K, Crystal 1 | 159.38
358.78 K, Crystal 1 | 152.01
359.18 K, Crystal 1 | 159.61
359.78 K, Crystal 1 | 152.18
360.18 K, Crystal 1 | 159.81
360.78 K, Crystal 1 | 152.37
361.18 K, Crystal 1 | 160.09
